≈ marks a conversion by molar mass, not a printed value.

For the data set the following is noted: buffer; pH 7.4; 200.0 µM.
For the compound `CCOc1ccc(C(=O)Nc2ccc(CN3CCOCC3)cc2)cc1Cl`, the kinetic solubility (as a rule, solubility judged after dilution from a stock solution rather than from solid) was found to be 27.5 µg/mL (≈ 73.4 µM).

Compound `CC(=O)N(C)c1ccc(N=Cc2cc3c(cc2[N+](=O)[O-])OCO3)cc1` showed a kinetic solubility of 44.1 µg/mL (≈ 129 µM). Compared with the last compound, the solubility kinetic is about 1.6-fold higher.

In turn, `O=C(c1cccc(Oc2ccc([N+](=O)[O-])cc2)c1)N1CCOCC1` gave a solubility (kinetic) of more than 49.2 µg/mL.

For `CCCCC(=O)NC(=O)NC(c1ccccc1)c1ccccc1`, the solubility (kinetic) was less than 0.3 µg/mL.

As for `Cc1noc(C(=O)Nc2ccc(F)cc2F)c1Cl`, the kinetic solubility came to 13.2 µg/mL (≈ 48.4 µM).

Regarding `CCOC(=O)Nc1cc(NC(=O)OCC)c(C)nc1C`, the kinetic solubility is more than 42.2 µg/mL.

As to `CC(=O)C1=C(c2ccccc2)NC(=O)NC1c1ccc(O)c(Cl)c1` (configuration not stated), the kinetic solubility was more than 51.4 µg/mL.

With `C=CCOC(=O)c1cn(CC)c2nc(C)ccc2c1=O`, the kinetic solubility was more than 40.8 µg/mL.

The compound `COC(=O)c1ccc(/C=C2\Oc3ccccc3NC2=O)cc1` came in with a kinetic solubility of 1 µg/mL (≈ 3.39 µM).

The compound `O=C(N/C(=C\c1ccco1)C(=O)N1CCCCC1)c1ccc([N+](=O)[O-])cc1` yielded a solubility (kinetic) of 3.6 µg/mL (≈ 9.75 µM).

Compound `O=C(COC(=O)Cc1ccc(Cl)cc1)NCc1ccco1` came in with a kinetic solubility of more than 46.2 µg/mL.

In the case of `O=c1onc(-c2ccccc2)c2ccccc12`, the solubility (kinetic) worked out at 27.7 µg/mL (≈ 124 µM).

`CCOP(=O)(OCC)C(Cc1ccccc1)NC(C)=O` (configuration not stated): the solubility (kinetic) was 43.5 µg/mL (≈ 145 µM).

The compound `O=C(O)CSCC(=O)Nc1ccccn1` displayed a kinetic solubility of more than 33.9 µg/mL.

`COc1cc(C)c(COc2ncnc3ccccc23)cc1OC` showed a kinetic solubility of 40.1 µg/mL (≈ 129 µM).

`CCOc1ccc(Nc2nc(-c3cccnc3)cs2)cc1` returned a kinetic solubility of less than 0.2 µg/mL.

Compound `Cc1ccc(C(=O)Nc2cccc3cccnc23)cc1C` came in with a solubility (kinetic) of less than 0.3 µg/mL.

The compound `O=C(Nc1cccc(C(F)(F)F)c1)c1c(O)c2ccccc2[nH]c1=O` yielded a kinetic solubility of less than 0.4 µg/mL.

`O=C(CN1C(=O)NC2(CCOc3ccccc32)C1=O)N1CCCCC1` (configuration not stated) gave a kinetic solubility of more than 51.5 µg/mL.

Compound `Cc1cc(C)cc(NC(=O)c2cc(C)nc3ccccc23)c1` returned a kinetic solubility of less than 0.3 µg/mL.

Regarding `N#CCc1ccc(OC(=O)c2cccnc2)cc1`, the kinetic solubility is more than 35.7 µg/mL.

On to `Cn1c(=O)c2c(ncn2CC(O)CO)n(C)c1=O` (configuration not stated), for which the kinetic solubility is more than 38.1 µg/mL.

Consider `Cc1ccc(C(=O)CSc2nc(O)cc(=O)[nH]2)cc1C`, for which the kinetic solubility was more than 43.6 µg/mL.

In turn, `Cc1occc1C(=O)Nc1c(Cl)cccc1Cl` yielded a kinetic solubility of 37.1 µg/mL (≈ 137 µM).

Take `O=C(CSc1nc(-c2ccc(F)cc2)cs1)NCC1CCCO1` (configuration not stated): the solubility (kinetic) was more than 52.9 µg/mL.

`Cc1csc(NC(=O)c2cc[n+]([O-])cc2)n1` registered a solubility (kinetic) of more than 35.3 µg/mL.

On to `O=C(Nc1cc(Cl)ccc1N1CCOCC1)c1ccncc1`, for which the solubility (kinetic) was more than 47.7 µg/mL.

On to `Cc1ccc(C)c2sc(NC(=O)CN3C(=O)CCC3=O)nc12`, for which the kinetic solubility stood at 45.5 µg/mL (≈ 143 µM).

Turning to `CN(C(=O)CC1C(=O)NCCN1Cc1ccc(F)cc1)C1CCOCC1` (configuration not stated), the solubility (kinetic) was more than 54.5 µg/mL.

Regarding `O=C(c1ccccc1)N1CCN(S(=O)(=O)N2CCOCC2)CC1`, the kinetic solubility came out at 46 µg/mL (≈ 136 µM).

Consider `CNC(=S)N(CCCO)Cc1cc2cc3c(cc2[nH]c1=O)OCO3`, for which the kinetic solubility is 8.2 µg/mL (≈ 23.5 µM).

Turning to `O=C(c1ccccc1)C(Nc1ccccn1)c1ccccc1` (configuration not stated), the kinetic solubility worked out at 27.8 µg/mL (≈ 96.4 µM).

Regarding `COc1ccc(Nc2nc(-c3cccnc3)cs2)c(OC)c1`, the kinetic solubility was determined as 26.3 µg/mL (≈ 83.9 µM). The solubility kinetic values of the last two compounds are within 1.5-fold of each other.

The compound `Cc1cc(C(=O)NCc2ccco2)sc1C` showed a kinetic solubility of more than 35.3 µg/mL.

For the compound `CC(NCc1ccc(F)cc1)C(=O)NC1CCCCC1.O=C(O)C(=O)O` (configuration not stated), the solubility (kinetic) was more than 55.3 µg/mL.

As to `COc1cc(OC)cc(C(=O)Nc2cc(C)on2)c1`, the solubility (kinetic) stood at 9.7 µg/mL (≈ 37 µM).

`O=S(=O)(Cc1ccccc1)Nc1cccc(F)c1` had a solubility (kinetic) of 37.6 µg/mL (≈ 142 µM).

Regarding `Cc1ccc(NC(=O)Cc2cccs2)cc1Cl`, the kinetic solubility came out at 6.1 µg/mL (≈ 23 µM).

`Cc1ccccc1C(=O)NC(=S)N(C)CCc1ccccn1` returned a solubility (kinetic) of more than 47 µg/mL.

As for `Cc1ccc(-n2ccnc(SCC(=O)NC3CCCC3)c2=O)cc1Cl`, the solubility (kinetic) is 3 µg/mL (≈ 7.94 µM).

`CC1(C)Nc2ccccc2N(Cc2ccc([N+](=O)[O-])cc2)C1=O` yielded a kinetic solubility of more than 46.7 µg/mL.

`Cc1ccc(C)c(N2CCN(CCN3CCCCC3)CC2)c1.Cl` displayed a solubility (kinetic) of 36.5 µg/mL.

For the compound `CCOC(=O)CC(NC(=O)c1cccs1)c1ccc(C)cc1` (configuration not stated), the kinetic solubility was more than 47.6 µg/mL.

`O=C(NCC(=O)N1CCN(c2ccccc2)CC1)c1ccccc1` yielded a kinetic solubility of more than 48.5 µg/mL.

`Cc1cc(C(=O)COC(=O)c2cnccn2)c(C)n1-c1ccc(Br)cc1` had a kinetic solubility of 4.1 µg/mL (≈ 9.9 µM).

`CCN1CCN(c2ccc(S(=O)(=O)N3CCCC3)cn2)CC1` came in with a solubility (kinetic) of 34.6 µg/mL (≈ 107 µM).

Regarding `Cc1cc(NC(=O)CSc2nnc(C)n2-c2ccccc2C)no1`, the solubility (kinetic) is more than 51.5 µg/mL.

As for `COc1ccc(C/C(N)=N/OC(=O)CCc2ccccc2)cc1`, the kinetic solubility came to 7.7 µg/mL (≈ 24.7 µM).

For `CCOC(=O)NC(=O)CN1C(=O)NC2(CCc3ccccc32)C1=O` (configuration not stated), the kinetic solubility was more than 49.7 µg/mL.

With `O=[N+]([O-])c1ccccc1S(=O)(=O)Nc1cccnc1`, the kinetic solubility was more than 41.9 µg/mL.

`COC(=O)c1ccc(C(=O)OC)c(NC(=O)CSCC(=O)O)c1`: the solubility (kinetic) was more than 51.2 µg/mL.

In turn, `O=S(=O)(Nc1cc(F)ccc1F)c1cccc2nonc12` registered a kinetic solubility of more than 46.7 µg/mL.

The values are drawn from PubChem BioAssay AID1996.
